Here are results for 11 molecules from ChEMBL document CHEMBL1131671, “6-(1-Hydroxyalkyl)penam sulfone derivatives as inhibitors of class A and class C beta-lactamases I” (Bioorg Med Chem Lett, 1999).

Converted amounts (≈) assume the structure as drawn.

Experiment [1] deals with Mus musculus. Description: In vivo inhibitory activity against Serratia marcescens in mice. It is filed as functional.
The test system of experiment [2] is Mus musculus. Nature of the experiment: In vivo inhibitory activity against Escherichia coli in mice. In kind it is functional.
The subject of experiment [3] is Escherichia coli. Nature of the experiment: In vitro inhibitory activity against Escherichia coli. It is filed as functional.
The subject of experiment [4] is Serratia marcescens. Nature of the experiment: In vitro inhibitory activity against Serratia marcescens. In kind it is functional.
Experiment [5] deals with Beta-lactamase TEM (Escherichia coli, UniProt P62593). Nature of the experiment: Inhibitory activity against TEM-1 (class A) beta-lactamase.
The target in experiment [6] is Beta-lactamase (Escherichia coli K-12, UniProt P00811). Description: Inhibitory activity against AmpC (class C) beta-lactamase.
Sequence of Beta-lactamase (P00811 whole entry): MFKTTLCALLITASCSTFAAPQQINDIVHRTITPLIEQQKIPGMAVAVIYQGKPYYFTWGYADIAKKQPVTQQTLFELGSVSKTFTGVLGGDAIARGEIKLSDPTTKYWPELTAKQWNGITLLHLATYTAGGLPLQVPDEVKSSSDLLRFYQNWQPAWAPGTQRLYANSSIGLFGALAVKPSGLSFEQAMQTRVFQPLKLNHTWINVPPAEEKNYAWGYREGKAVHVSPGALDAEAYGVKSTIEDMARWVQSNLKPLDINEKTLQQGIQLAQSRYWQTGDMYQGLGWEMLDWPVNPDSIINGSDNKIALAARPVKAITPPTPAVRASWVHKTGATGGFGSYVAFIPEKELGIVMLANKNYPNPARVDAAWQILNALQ

Sequence of Beta-lactamase TEM (P62593 whole entry): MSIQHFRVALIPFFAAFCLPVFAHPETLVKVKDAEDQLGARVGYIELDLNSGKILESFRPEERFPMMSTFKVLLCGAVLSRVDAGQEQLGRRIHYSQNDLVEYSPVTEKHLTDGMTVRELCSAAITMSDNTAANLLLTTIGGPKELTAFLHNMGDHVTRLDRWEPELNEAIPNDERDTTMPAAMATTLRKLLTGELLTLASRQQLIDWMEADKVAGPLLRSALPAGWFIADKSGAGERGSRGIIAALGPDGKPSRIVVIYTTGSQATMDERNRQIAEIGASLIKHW

`CCN1CCN(C(=O)N[C@@H](C(=O)N[C@@H]2C(=O)N3[C@@H]2SC(C)(C)[C@@H]3C(=O)O)c2ccccc2)C(=O)C1=O` [PIPERACILLIN]: the ED50 in experiment [1] is 128 mg/kg; in experiment [2], 256 mg/kg. Also, the MIC in experiment [3] was greater than 64 µg/mL; in experiment [4] it was 32 µg/mL (≈ 61.8 µM).
Turning to `CC(C)[C@H](NC[C@H]1OCC[C@H]1SC1=C(C(=O)O)N2C(=O)[C@H]([C@@H](C)O)C2[C@H]1C)C(=O)O` (stereo partly drawn), the IC50 is 0.091 µM in experiment [5] and 0.068 µM in experiment [6].
Taken in the same sequence, the figures for `C[C@H](O)[C@@H]1C(=O)N2[C@@H](C(=O)O)C(C)(C)S(=O)(=O)[C@H]12` were 204 µM and 0.12 µM.
`CC1(C)[C@H](C(=O)O)N2C(=O)[C@H](CO)[C@H]2S1(=O)=O` displayed an IC50 in experiment [6] of 5.8 µM.
Turning to `CC1(C)S[C@@H]2[C@@H](CO)C(=O)N2[C@H]1C(=O)O`, the figures for the IC50 in experiment [5] and in experiment [6] were 59 µM and 220 µM, respectively.
`C[C@]1(Cn2ccnn2)[C@H](C(=O)[O-])N2C(=O)C[C@H]2S1(=O)=O.[Na+]` [TAZOBACTAM SODIUM]: the figures for the 50% effective dose (ED50) in experiment [1] and in experiment [2] were 144 mg/kg and 7.7 mg/kg, respectively. Also, the minimum inhibitory concentration (MIC) worked out at 2 µg/mL in experiment [3] and 32 µg/mL in experiment [4].
Regarding `CC1(C)S[C@@H]2[C@H](CO)C(=O)N2[C@H]1C(=O)O`, the IC50 was 31 µM in experiment [5] and 65.9 µM in experiment [6].
For `C[C@H](O)[C@H]1C(=O)N2[C@@H](C(=O)O)C(C)(C)S(=O)(=O)[C@H]12`, in that order: greater than 334 µM and 1.6 µM.
For `C[C@@H](O)[C@H]1C(=O)N2C(C(=O)O)=C(S[C@@H]3CCO[C@@H]3CN)[C@H](C)[C@H]12`, in that order: 0.035 µM and 0.18 µM.
For `CC1(C)[C@H](C(=O)O)N2C(=O)[C@@H](CO)[C@H]2S1(=O)=O`, the values for the ED50 in experiment [1] and in experiment [2] were 30 mg/kg and 8 mg/kg, respectively. The molecule further returned an IC50 in experiment [6] of 1.16 µM. Besides, the values for the MIC in experiment [3] and in experiment [4] were 4 µg/mL (≈ 15.2 µM) and 8 µg/mL (≈ 30.4 µM), respectively.
For `C[C@@H](O)[C@H]1C(=O)N2[C@@H](C(=O)O)C(C)(C)S(=O)(=O)[C@H]12`, the figures for the IC50 in experiment [5] and in experiment [6] were 47.9 µM and 10.2 µM, respectively.
